From ChEMBL document CHEMBL5252565, “Advances in research on 3C-like protease (3CLpro) inhibitors against SARS-CoV-2 since 2020” (RSC Med Chem, 2023)

Experiments:
[1] = species on record: Homo sapiens; assay: Antiviral activity against SARS-CoV-2 infected in human A549-ACE2 cells; type: functional, cell-based
[2] = tested on: SARS-CoV-2; assay: Antiviral activity against SARS-CoV-2 infected in African green monkey Vero E6 cells assessed as reduction in infection measured after 24 hrs by Plaque assay; type: functional, organism-based; conditions: Severe acute respiratory syndrome coronavirus 2, Vero C1008, 24 h
[3] = Oral bioavailability in Sprague-Dawley rat by LC-MS/MS analysis; type: ADME, organism-based; conditions: in vivo
[4] = Oral bioavailability in mouse by LC-MS/MS analysis; type: ADME, organism-based; conditions: in vivo
[5] = target: T1, Replicase polyprotein 1ab (Severe acute respiratory syndrome coronavirus 2, UniProt P0DTD1); assay: Inhibition of SARS-CoV-2 HKU-001a 3CL protease
[6] = Oral bioavailability in Beagle dog by LC-MS/MS analysis; type: ADME, organism-based, Canis lupus familiaris; conditions: in vivo
[7] = target: T1, Replicase polyprotein 1ab; assay: Inhibition of SARS-CoV-2 3CL protease
[8] = species on record: Homo sapiens; assay: Antiviral activity against SARS-CoV-2 infected in human A549-ACE2 cells by immunofluorescence microscopic technique; type: functional, cell-based
[9] = target: T1, Replicase polyprotein 1ab; assay: Inhibition of SARS-CoV-2 3CL protease expressed in escherichia coli measured after 24 hrs by SDS-PAGE
[10] = tested on: SARS-CoV-2; assay: Antiviral activity against SARS-CoV-2 infected in […] Caco-2 cells; type: functional, organism-based; conditions: Severe acute respiratory syndrome coronavirus 2, Caco-2
[11] = target: Trypsin (Homo sapiens, UniProt P07477+P07478+P35030); assay: Inhibition of human Trypsin using Z-Phe-Arg-AMC as substrate incubated for 30 mins by FRET assay; type: protein assay
[12] = target: T2, Caspase-3 (Homo sapiens, UniProt P42574); assay: Inhibition of human caspase 3 using Z-Phe-Arg-AMC as substrate incubated for 30 mins by FRET assay
T2 sequence (P42574 whole entry): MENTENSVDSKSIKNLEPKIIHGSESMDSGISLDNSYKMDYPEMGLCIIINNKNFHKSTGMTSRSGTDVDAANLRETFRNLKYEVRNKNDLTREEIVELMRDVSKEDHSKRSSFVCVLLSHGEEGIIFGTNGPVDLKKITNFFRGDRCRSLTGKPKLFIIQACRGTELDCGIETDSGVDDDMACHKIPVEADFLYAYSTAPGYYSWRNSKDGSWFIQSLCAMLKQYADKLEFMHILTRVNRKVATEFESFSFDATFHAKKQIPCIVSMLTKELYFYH

[13] = Inhibition of human cathepsin using Z-Phe-Arg-AMC as substrate incubated for 30 mins by FRET assay
[14] = tested on: SARS-CoV-2; assay: Antiviral activity against SARS-CoV-2 infected in African green monkey Vero E6 cells; type: functional, organism-based; conditions: Severe acute respiratory syndrome coronavirus 2, Vero C1008
[15] = target: T3, Calpain1/2 (Homo sapiens, UniProt P17655+P07384); assay: Inhibition of human calpain using Z-Phe-Arg-AMC as substrate incubated for 30 mins by FRET assay; type: protein assay
T3 sequence (P17655 whole entry): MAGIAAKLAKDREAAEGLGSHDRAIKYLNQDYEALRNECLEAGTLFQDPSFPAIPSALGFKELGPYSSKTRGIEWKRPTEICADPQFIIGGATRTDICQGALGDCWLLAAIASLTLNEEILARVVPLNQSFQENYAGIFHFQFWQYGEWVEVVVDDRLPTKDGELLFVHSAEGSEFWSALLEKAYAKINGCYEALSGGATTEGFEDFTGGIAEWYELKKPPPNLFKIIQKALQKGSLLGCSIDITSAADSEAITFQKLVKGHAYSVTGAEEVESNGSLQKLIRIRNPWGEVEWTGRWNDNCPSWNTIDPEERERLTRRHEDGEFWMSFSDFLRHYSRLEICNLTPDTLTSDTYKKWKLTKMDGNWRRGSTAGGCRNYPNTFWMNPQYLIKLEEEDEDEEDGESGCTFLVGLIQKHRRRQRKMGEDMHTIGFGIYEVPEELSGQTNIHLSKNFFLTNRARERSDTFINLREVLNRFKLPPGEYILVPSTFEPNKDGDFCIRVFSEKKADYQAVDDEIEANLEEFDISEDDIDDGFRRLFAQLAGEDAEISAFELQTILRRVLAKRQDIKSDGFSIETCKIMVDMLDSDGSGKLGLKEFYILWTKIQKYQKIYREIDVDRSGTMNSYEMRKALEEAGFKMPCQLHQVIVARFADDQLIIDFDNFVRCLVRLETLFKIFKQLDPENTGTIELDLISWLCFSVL
T3 sequence (P07384 whole entry): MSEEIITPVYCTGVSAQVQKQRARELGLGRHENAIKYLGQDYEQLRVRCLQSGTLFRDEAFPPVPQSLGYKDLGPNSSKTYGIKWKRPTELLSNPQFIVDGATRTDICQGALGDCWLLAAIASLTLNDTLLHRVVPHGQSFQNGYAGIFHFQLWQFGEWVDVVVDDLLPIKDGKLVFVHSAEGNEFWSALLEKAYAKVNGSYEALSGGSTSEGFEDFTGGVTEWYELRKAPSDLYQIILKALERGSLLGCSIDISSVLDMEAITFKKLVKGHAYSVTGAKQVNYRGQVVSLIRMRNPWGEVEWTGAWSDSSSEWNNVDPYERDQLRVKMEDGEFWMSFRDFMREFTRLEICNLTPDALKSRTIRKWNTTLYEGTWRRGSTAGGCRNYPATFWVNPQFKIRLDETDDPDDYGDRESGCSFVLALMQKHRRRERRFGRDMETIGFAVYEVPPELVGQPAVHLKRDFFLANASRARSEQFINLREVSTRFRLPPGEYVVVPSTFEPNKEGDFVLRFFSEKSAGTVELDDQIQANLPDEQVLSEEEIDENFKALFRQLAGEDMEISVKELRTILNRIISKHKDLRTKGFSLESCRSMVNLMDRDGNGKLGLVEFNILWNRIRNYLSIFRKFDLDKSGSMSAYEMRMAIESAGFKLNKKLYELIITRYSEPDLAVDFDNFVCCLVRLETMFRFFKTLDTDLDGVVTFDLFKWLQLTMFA

For `Cc1ccc(NC(=O)c2ccc(CN3CCN(C)CC3)cc2)cc1Nc1nc(-c2cccnc2)cs1` [MASITINIB], which EC50 [1] is on record?
Its EC50 is 3.2 µM.

For `O=C[C@H](C[C@@H]1CCNC1=O)NC(=O)[C@H](Cc1cccc(F)c1)NC(=O)c1cc2ccccc2[nH]1`, which IC50 [2] is on record?
Its IC50 is 0.72 µM.

What does the source list for `[2H][C@](C(=O)N[C@@H](C)c1ccc(F)cc1)(c1cccnc1)N(C(=O)C(C)=O)c1ccc2c(c1)oc1ccccc12`?
bioavailability [3]: 31.9%; bioavailability [4]: 92.9%; IC50 [5]: 0.0081 µM; bioavailability [6]: 85.7%

For `O=C[C@H](C[C@@H]1CCNC1=O)NC(=O)[C@@H]1[C@H]2CCC[C@H]2CN1C(=O)CCc1cc(F)cc(F)c1`, which IC50 [7] is on record?
Its IC50 is 7.6 µM.

Which results are given for `CNC(=O)c1cc(Br)cc([N+](=O)[O-])c1N[C@@H]1CCCC[C@@H]1NC(=O)c1cccc2ccccc12`?
EC50 [8]: 0.012 µM; IC50 [9]: 0.072 µM

With `C[C@H](NC(=O)[C@@H](c1cccnc1)N(C(=O)C(Cl)Cl)c1ccc(-c2ccccc2)cc1)c1ccccc1` as the molecule, how does the EC50 [10] read?
Its EC50 is 2.05 µM.

And the IC50 [11]?
Its IC50 is over 20 µM.

What about the IC50 [12] of the same molecule?
The IC50 was over 20 µM.

What about the IC50 [13] of the same molecule?
Its IC50 is over 20 µM.

And the EC50 [14]?
Its EC50 is 0.9 µM.

What about the IC50 [15] of the same molecule?
The IC50 was over 20 µM.
